Laboratory results from article PMC6210072 (ACS Omega, 2018).

Columns and labels:
ROCK2 = ROCK2 (Homo sapiens, UniProt O75116); type: biochemical; settings: read-out: ROCK2
PARP2 = PARP2 (Homo sapiens, UniProt Q9UGN5); type: biochemical
PARP2, sequence (Q9UGN5 whole entry): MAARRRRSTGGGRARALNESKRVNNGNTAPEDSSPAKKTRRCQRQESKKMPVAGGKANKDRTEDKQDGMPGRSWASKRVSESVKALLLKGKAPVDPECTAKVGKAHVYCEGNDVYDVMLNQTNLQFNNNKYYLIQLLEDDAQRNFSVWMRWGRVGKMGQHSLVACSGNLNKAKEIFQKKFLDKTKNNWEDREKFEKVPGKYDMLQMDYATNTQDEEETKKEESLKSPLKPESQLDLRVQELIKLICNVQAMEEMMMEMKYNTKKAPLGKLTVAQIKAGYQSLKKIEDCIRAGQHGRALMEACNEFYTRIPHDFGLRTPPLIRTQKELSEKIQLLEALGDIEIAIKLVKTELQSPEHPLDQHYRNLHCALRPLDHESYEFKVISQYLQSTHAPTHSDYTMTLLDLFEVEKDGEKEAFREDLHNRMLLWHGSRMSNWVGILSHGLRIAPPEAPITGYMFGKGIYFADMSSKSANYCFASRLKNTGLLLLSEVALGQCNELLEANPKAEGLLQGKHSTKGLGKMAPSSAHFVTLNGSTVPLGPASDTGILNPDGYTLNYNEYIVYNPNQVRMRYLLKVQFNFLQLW

ROCK2, sequence (O75116 whole entry): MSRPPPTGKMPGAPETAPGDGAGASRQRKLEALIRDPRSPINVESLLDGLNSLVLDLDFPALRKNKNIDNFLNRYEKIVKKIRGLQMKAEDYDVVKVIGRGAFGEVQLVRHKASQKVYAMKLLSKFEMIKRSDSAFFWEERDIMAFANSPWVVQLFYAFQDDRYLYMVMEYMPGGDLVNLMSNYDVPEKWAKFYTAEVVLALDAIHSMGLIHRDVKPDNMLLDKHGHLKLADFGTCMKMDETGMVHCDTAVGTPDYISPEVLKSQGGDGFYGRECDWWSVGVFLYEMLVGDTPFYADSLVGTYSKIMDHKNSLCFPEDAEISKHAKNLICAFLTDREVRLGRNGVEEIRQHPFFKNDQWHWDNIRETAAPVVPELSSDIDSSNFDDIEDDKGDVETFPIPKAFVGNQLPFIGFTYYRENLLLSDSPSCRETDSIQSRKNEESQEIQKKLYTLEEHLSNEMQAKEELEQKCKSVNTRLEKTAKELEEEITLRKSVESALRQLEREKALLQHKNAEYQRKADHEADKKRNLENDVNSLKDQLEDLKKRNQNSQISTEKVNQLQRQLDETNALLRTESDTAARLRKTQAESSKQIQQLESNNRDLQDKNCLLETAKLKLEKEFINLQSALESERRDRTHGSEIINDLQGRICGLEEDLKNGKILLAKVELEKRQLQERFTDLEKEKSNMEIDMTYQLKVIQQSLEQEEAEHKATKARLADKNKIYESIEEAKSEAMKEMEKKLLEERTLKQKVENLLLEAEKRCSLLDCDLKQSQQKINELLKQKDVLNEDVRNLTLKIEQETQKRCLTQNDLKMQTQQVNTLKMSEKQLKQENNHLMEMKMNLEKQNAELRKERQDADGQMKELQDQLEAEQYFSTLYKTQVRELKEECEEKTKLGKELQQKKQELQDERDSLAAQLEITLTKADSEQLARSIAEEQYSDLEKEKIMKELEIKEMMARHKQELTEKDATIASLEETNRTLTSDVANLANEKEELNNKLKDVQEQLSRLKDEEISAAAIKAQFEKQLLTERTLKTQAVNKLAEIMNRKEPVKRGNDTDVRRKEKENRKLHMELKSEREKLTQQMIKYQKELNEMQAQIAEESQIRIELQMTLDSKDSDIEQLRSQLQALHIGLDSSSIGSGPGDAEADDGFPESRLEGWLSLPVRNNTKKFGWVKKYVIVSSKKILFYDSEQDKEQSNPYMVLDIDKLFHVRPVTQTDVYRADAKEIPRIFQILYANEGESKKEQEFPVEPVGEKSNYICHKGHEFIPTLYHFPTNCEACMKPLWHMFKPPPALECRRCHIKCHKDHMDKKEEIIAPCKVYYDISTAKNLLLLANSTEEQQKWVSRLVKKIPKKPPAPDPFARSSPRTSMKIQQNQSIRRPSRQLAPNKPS

inhibition at 10 µM (ROCK2) [%]	IC50 (PARP2) [µM]	SMILES
20.5 ± 0.4	–	O=C(COc1cccc2c(=O)[nH]ccc12)c1ccccc1 [compound 6, UPF 1069]
–	35.1	O=S(=O)(c1cccc2c(O)nccc12)N1CCCNCC1 [compound 4, hydroxyfasudil]
